Assay results from patent publication US8691855B2, “Compounds, isomer thereof, or pharmaceutically acceptable salts thereof as vanilloid receptor antagonist and pharmaceutical compositions containing the same” (Amorepacific Corporation, priority 2008, dated 2014).

Key:
Male ICR mice = assay: Analgesic activity test: mouse writhing test by inducing with phenyl-p-quinone; assay type: in vivo; conditions: po, p.o., read-out: Analgesic effect (% Inhibition)
Description: 2. Analgesic Activity Test: Mouse Writhing Test by Inducing with Phenyl-p-quinone Male ICR mice (mean body weight 25 g) were maintained in a controlled lighting environment (12 h on/12 h off) for experiment. Animals received an intraperitoneal injection of 0.3 ml of the chemical irritant phenyl-p-quinone (dissolved in saline containing 5% ethanol to be a close of 4.5 mg/kg) and 6 mins later, the number of abdominal constrictions was counted in the subsequent 6 mins period. Animals (10 animals/group) received 0.2 ml of test compounds solution in vehicle of ethanol/Tween 80/saline (Oct. 10, 1980) intraperitoneally 30 min before the injection of phenyl-p-quinone. In the case of oral administration, 0.2 ml of test compounds solution in vehicle of ethanol/Tween 80/saline (5/5/90) were administered 54 min prior to the 0.2 ml of 0.02% phenyl-p-quinone injection. A reduction in the number of writhes responding to the test drug compound relative to the number responding in saline control group was considered to be indicative of an analgesic effect. Analgesic effect was calculated by % inhibition equation (% inhibition=(C-T)/C×100), wherein C and T represent the number of writhes in control and compound-treated group, respectively.

vanilloid receptor = biological target: T1, vanilloid receptor (Rattus norvegicus, UniProt O35433); assay: 45Ca influx test (antagonist calcium uptake test) in rat DRG neurons stimulated with capsaicin; assay type: cell-based; conditions: neonatal SD rat DRG neurons; capsaicin 0.5 μM; 45Ca
T1 construct: DRG nerve cells from the primary culture of 2 days were equilibrated; endogenous in cells; host or cells: primary culture of dorsal root ganglion neurons from neonatal SD rats
How it was run: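 Neonatal SD rat DRG neurons, cultured 2 days with NGF 200 ng/ml, exposed to test compound plus 0.5 μM capsaicin and 45Ca (10 μCi/ml) in HEPES-buffered Ca/Mg-free HBSS, pH 7.4, 10 min at room temperature. Influx counted by scintillation; activity as percent inhibition of the 0.5 μM capsaicin maximal response.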

T1 sequence (O35433 whole entry): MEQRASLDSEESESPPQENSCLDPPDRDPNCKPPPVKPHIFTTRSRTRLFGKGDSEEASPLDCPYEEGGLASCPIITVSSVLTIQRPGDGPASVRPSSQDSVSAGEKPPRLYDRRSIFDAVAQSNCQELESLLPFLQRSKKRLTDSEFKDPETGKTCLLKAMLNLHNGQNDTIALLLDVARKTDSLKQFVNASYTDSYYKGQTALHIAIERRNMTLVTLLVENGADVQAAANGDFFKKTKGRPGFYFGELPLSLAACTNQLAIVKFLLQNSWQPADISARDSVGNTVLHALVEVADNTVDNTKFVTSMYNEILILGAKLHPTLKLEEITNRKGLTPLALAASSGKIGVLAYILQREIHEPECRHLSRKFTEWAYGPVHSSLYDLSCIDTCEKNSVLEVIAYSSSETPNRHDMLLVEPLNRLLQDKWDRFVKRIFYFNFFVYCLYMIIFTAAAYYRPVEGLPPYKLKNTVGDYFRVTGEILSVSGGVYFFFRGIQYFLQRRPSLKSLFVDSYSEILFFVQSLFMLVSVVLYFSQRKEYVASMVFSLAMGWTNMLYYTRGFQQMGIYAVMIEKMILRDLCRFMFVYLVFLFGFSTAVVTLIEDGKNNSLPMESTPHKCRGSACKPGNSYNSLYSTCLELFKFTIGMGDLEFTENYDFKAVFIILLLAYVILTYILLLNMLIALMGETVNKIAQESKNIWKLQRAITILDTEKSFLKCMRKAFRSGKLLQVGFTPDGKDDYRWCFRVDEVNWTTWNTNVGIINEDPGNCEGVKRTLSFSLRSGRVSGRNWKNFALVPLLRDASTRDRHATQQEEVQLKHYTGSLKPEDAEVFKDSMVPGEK

C[C@@H](NC(=O)c1coc(Oc2cccc(C(C)(C)C)c2)n1)c1cc(F)c(NS(C)(=O)=O)c(F)c1 [Example 1, 2-(3-tert-Butyl-phenoxy)-oxazole-4-carboxylic acid [1-(3,5-difluoro-4-methanesulfonylamino-phenyl)-ethyl]-amide]
inhibition in vivo at 3 mg/kg (Male ICR mice): 21%
IC50 (vanilloid receptor): 0.15 µM

C[C@@H](NC(=O)c1coc(Oc2cccc(C(F)(F)F)c2)n1)c1cc(F)c(NS(C)(=O)=O)c(F)c1 [Example 2, 2-(3-Trifluoromethyl-phenoxy)-oxazole-4-carboxylic acid [1-(3,5-difluoro-4-methanesulfonylamino-phenyl)-ethyl]-amide]
inhibition in vivo at 3 mg/kg (Male ICR mice): 32%
IC50 (vanilloid receptor): 0.41 µM

CC(C)c1cccc(Oc2nc(C(=O)N[C@H](C)c3cc(F)c(NS(C)(=O)=O)c(F)c3)co2)c1 [Example 4, 2-(3-Isopropyl-phenoxy)-oxazole-4-carboxylic acid [1-(3,5-difluoro-4-methanesulfonylamino-phenyl)-ethyl]-amide]
inhibition in vivo at 3 mg/kg (Male ICR mice): 28%
IC50 (vanilloid receptor): 0.08 µM

CC1CCc2c(Oc3nc(C(=O)N[C@H](C)c4cc(F)c(NS(C)(=O)=O)c(F)c4)co3)cccc21 (stereo partly shown) [Example 30, 2-(1-Methyl-indan-4-yloxy)-oxazole-4-carboxylic acid [1-(3,5-difluoro-4-methanesulfonylamino-phenyl)-ethyl]-amide]
inhibition in vivo at 3 mg/kg (Male ICR mice): 16%
IC50 (vanilloid receptor): 0.05 µM

C[C@@H](NC(=O)c1coc(Oc2cccc(C3CC3)c2)n1)c1cc(F)c(NS(C)(=O)=O)c(F)c1 [Example 32, 2-(3-Cyclopropyl-phenoxy)-oxazole-4-carboxylic acid [1-(3,5-difluoro-4-methanesulfonylamino-phenyl)-ethyl]-amide]
inhibition in vivo at 3 mg/kg (Male ICR mice): 32%
IC50 (vanilloid receptor): 0.28 µM

CC(c1cccc(Oc2nc(C(=O)N[C@H](C)c3cc(F)c(NS(C)(=O)=O)c(F)c3)co2)c1)C(F)(F)F (stereo partly shown) [Example 35, 2-[3-(2,2,2-Trifluoro-1-methyl-ethyl)-phenoxy]-oxazole-4-carboxylic acid [1-(3,5-difluoro-4-methanesulfonylamino-phenyl)-ethyl]-amide]
inhibition in vivo at 0.3 mg/kg (Male ICR mice): 29%
IC50 (vanilloid receptor): 1.8 µM

CCCc1c(Oc2nc(C(=O)N[C@H](C)c3cc(F)c(NS(C)(=O)=O)c(F)c3)co2)cccc1C(F)(F)F [Example 42, 2-(2-Propyl-3-trifluoromethyl-phenoxy)-oxazole-4-carboxylic acid [1-(3,5-difluoro-4-methanesulfonylamino-phenyl)-ethyl]-amide]
inhibition in vivo at 0.3 mg/kg (Male ICR mice): 30%
IC50 (vanilloid receptor): 0.13 µM

C[C@@H](NC(=O)c1coc(Oc2cccc(C(F)(F)F)c2C2CC2)n1)c1cc(F)c(NS(C)(=O)=O)c(F)c1 [Example 46, 2-(2-Cyclopropyl-3-trifluoromethyl-phenoxy)-oxazole-4-carboxylic acid [1-(3,5-difluoro-4-methanesulfonylamino-phenyl)-ethyl]-amide]
inhibition in vivo at 3 mg/kg (Male ICR mice): 53%
IC50 (vanilloid receptor): 0.43 µM

C[C@@H](NC(=O)c1coc(-c2cccc(C(F)(F)F)c2)n1)c1cc(F)c(NS(C)(=O)=O)c(F)c1 [Example 67, 2-(3-Trifluoromethyl-phenyl)-oxazole-4-carboxylic acid [1-(3,5-difluoro-4-methanesulfonylamino-phenyl)-ethyl]-amide]
inhibition in vivo at 3 mg/kg (Male ICR mice): 43%
IC50 (vanilloid receptor): 0.36 µM

CC(C)c1cccc(-c2nc(C(=O)N[C@H](C)c3cc(F)c(NS(C)(=O)=O)c(F)c3)co2)c1 [Example 69, 2-(3-Isopropyl-phenyl)-oxazole-4-carboxylic acid [1-(3,5-difluoro-4-methanesulfonylamino-phenyl)-ethyl]-amide]
inhibition in vivo at 0.3 mg/kg (Male ICR mice): 35%
IC50 (vanilloid receptor): 0.16 µM

CC(C)c1cccc(-c2nc(C(=O)N[C@H](C)c3cc(F)c(NS(C)(=O)=O)c(F)c3)cs2)c1 [Example 80, 2-(3-Isopropyl-phenyl)-thiazole-4-carboxylic acid [1-(3,5-difluoro-4-methanesulfonylamino-phenyl)-ethyl]-amide]
inhibition in vivo at 3 mg/kg (Male ICR mice): 22%
IC50 (vanilloid receptor): 0.03 µM

C[C@@H](NC(=O)c1coc(-c2cc(C(F)(F)F)cc(C(F)(F)F)c2)n1)c1cc(F)c(NS(C)(=O)=O)c(F)c1 [Example 87, 2-(3,5-Bis-trifluoromethyl-phenyl)-oxazole-4-carboxylic acid [1-(3,5-difluoro-4-methanesulfonylamino-phenyl)-ethyl]-amide]
inhibition in vivo at 3 mg/kg (Male ICR mice): 59%
IC50 (vanilloid receptor): 0.14 µM

C[C@@H](NC(=O)c1coc(-c2ccc(Cl)c(C(F)(F)F)c2)n1)c1cc(F)c(NS(C)(=O)=O)c(F)c1 [Example 91, 2-(4-Chloro-3-trifluoromethyl-phenyl)-oxazole-4-carboxylic acid [1-(3,5-difluoro-4-methanesulfonylamino-phenyl)-ethyl]-amide]
inhibition in vivo at 3 mg/kg (Male ICR mice): 25%
IC50 (vanilloid receptor): 0.21 µM

C[C@@H](NC(=O)c1csc(-c2cc(C(F)(F)F)cc(C(F)(F)F)c2)n1)c1cc(F)c(NS(C)(=O)=O)c(F)c1 [Example 93, 2-(3,5-Bis-trifluoromethyl-phenyl)-thiazole-4-carboxylic acid [1-(3,5-difluoro-4-methanesulfonylamino-phenyl)-ethyl]-amide]
inhibition in vivo at 3 mg/kg (Male ICR mice): 41%
IC50 (vanilloid receptor): 0.91 µM

C[C@@H](NC(=O)c1csc(-c2cccc(C(F)(F)F)c2)n1)c1cc(F)c(NS(C)(=O)=O)c(F)c1 [Example 94, 2-(3-Trifluoromethyl-phenyl)-thiazole-4-carboxylic acid [1-(3,5-difluoro-4-methanesulfonylamino-phenyl)-ethyl]-amide]
inhibition in vivo at 3 mg/kg (Male ICR mice): 46%
IC50 (vanilloid receptor): 0.36 µM

C[C@@H](NC(=O)c1coc(-c2cccc(C3CC3)c2)n1)c1cc(F)c(NS(C)(=O)=O)c(F)c1 [Example 100, 2-(3-Cyclopropyl-phenyl)-oxazole-4-carboxylic acid [1-(3,5-difluoro-4-methanesulfonylamino-phenyl)-ethyl]-amide]
inhibition in vivo at 3 mg/kg (Male ICR mice): 35%
IC50 (vanilloid receptor): 0.048 µM

C[C@@H](NC(=O)c1csc(-c2cccc(C3CC3)c2)n1)c1cc(F)c(NS(C)(=O)=O)c(F)c1 [Example 101, 2-(3-Cyclopropyl-phenyl)-thiazole-4-carboxylic acid [1-(3,5-difluoro-4-methanesulfonylamino-phenyl)-ethyl]-amide]
inhibition in vivo at 3 mg/kg (Male ICR mice): 33%
IC50 (vanilloid receptor): 0.073 µM

C[C@@H](NC(=O)c1ccc(-c2cccc(C3CC3)c2)o1)c1cc(F)c(NS(C)(=O)=O)c(F)c1 [Example 102, 5-(3-Cyclopropyl-phenyl)-furan-2-carboxylic acid [1-(3,5-difluoro-4-methanesulfonylamino-phenyl)-ethyl]-amide]
inhibition in vivo at 3 mg/kg (Male ICR mice): 58%
IC50 (vanilloid receptor): 0.1 µM

CS(=O)(=O)Nc1ccc(CNC(=O)c2ccc(-c3ccccc3C(F)(F)F)o2)cc1F [Example 117, 5-(2-Trifluoromethyl-phenyl)-furan-2-carboxylic acid 3-fluoro-4-methanesulfonylamino-benzylamide]
inhibition in vivo at 3 mg/kg (Male ICR mice): 39%
IC50 (vanilloid receptor): 0.68 µM

CS(=O)(=O)Nc1ccc(CNC(=O)c2ccc(-c3cccc(C(F)(F)F)c3)o2)cc1F [Example 118, 5-(3-Trifluoromethyl-phenyl)-furan-2-carboxylic acid 3-fluoro-4-methanesulfonylamino-benzylamide]
inhibition in vivo at 3 mg/kg (Male ICR mice): 42%
IC50 (vanilloid receptor): 0.37 µM

C[C@@H](NC(=O)c1ccc(-c2ccccc2C(F)(F)F)o1)c1cc(F)c(NS(C)(=O)=O)c(F)c1 [Example 119, 5-(2-Trifluoromethyl-phenyl)-furan-2-carboxylic acid [1-(3,5-difluoro-4-methanesulfonylamino-phenyl)-ethyl]-amide]
inhibition in vivo at 3 mg/kg (Male ICR mice): 38%
IC50 (vanilloid receptor): 0.13 µM

C[C@@H](NC(=O)c1ccc(-c2cccc(C(F)(F)F)c2)o1)c1cc(F)c(NS(C)(=O)=O)c(F)c1 [Example 120, (R)-5-(3-Trifluoromethyl-phenyl)-furan-2-carboxylic acid [1-(3,5-difluoro-4-methanesulfonylamino-phenyl)-ethyl]-amide]
inhibition in vivo at 3 mg/kg (Male ICR mice): 60%
IC50 (vanilloid receptor): 0.064 µM

C[C@@H](NC(=O)c1ccc(-c2cc(C(F)(F)F)cc(C(F)(F)F)c2)o1)c1cc(F)c(NS(C)(=O)=O)c(F)c1 [Example 123, 5-(3,5-Bis-trifluoromethyl-phenyl)-furan-2-carboxylic acid [1-(3,5-difluoro-4-methanesulfonylamino-phenyl)-ethyl]-amide]
inhibition in vivo at 0.3 mg/kg (Male ICR mice): 21%
IC50 (vanilloid receptor): 0.045 µM
